According to patent US9150589B2, “Polymorphous forms III and IV of N-benzoyl—staurosporine” (NOVARTIS AG, priority 2009, dated 2015):

Test: Thermal decomposition on heating under nitrogen atmosphere
Type: physicochemical
Settings: heating rate of 20K/min under nitrogen atmosphere
Procedure: The crystalline form III decomposes above 270° C., when heated with a heating rate of 20K/min under nitrogen atmosphere.
The crystalline form IV decomposes at about 270° C. when heated at 20K/min under nitrogen atmosphere.

SMILES: CO[C@@H]1[C@H](N(C)C(=O)c2ccccc2)C[C@H]2O[C@]1(C)n1c3ccccc3c3c4c(c5c6ccccc6n2c5c31)C(=O)NC4 [crystalline form III, N-[(9S,10R,11R,13R)-2,3,10,11,12,13-hexahydro-10-methoxy-9-methyl-1-oxo-9,13-epoxy-1H,9H-diindolo[1,2,3-gh:3′,2′,1′-lm]pyrrolo[3,4-j][1,7]benzodiazonin-11-yl]-N-methylbenzamide]
- decomposition temperature: above 270 °C

SMILES: CO[C@@H]1[C@H](N(C)C(=O)c2ccccc2)C[C@H]2O[C@]1(C)n1c3ccccc3c3c4c(c5c6ccccc6n2c5c31)C(=O)NC4 [crystalline form IV, N-[(9S,10R,11R,13R)-2,3,10,11,12,13-hexahydro-10-methoxy-9-methyl-1-oxo-9,13-epoxy-1H,9H-diindolo[1,2,3-gh:3′,2′,1′-lm]pyrrolo[3,4-j][1,7]benzodiazonin-11-yl]-N-methylbenzamide]
- decomposition temperature: about 270 °C
